Measured values taken from patent US20250127863A1, “ANTIMICROBIAL PEPTIDE FOR ONYCHOMYCOSIS” (CBMR SCIENTIFIC NANOSCIENCE B.V., priority 2019, published 2025).
No end group written: not given here.

Columns and labels:
Assay in all cases: MIC90 growth inhibition
Format in all cases: cell-based
Cryptococcus curvatus = conditions: RPMI 1640 one-fourth strength
Protocol: (§1) The minimum inhibitory concentration (MIC) value is defined as the lowest sample concentration that inhibited growth. In the Examples, the MIC90 value is presented, which MIC90 values are determined according to established methods known to the person with the skills in the relevant art. Experiments; 1×10E5 CFU of various strains/ml were incubated for 24-48 h at 37° C. in 4× diluted medium of RPMI 1640 with the indicated concentrations of antimicrobial peptide hLF(1-11) [SEQ ID NO: 3]. As controls various strains cells were incubated for 24-48 h at 37° C. with no agent (antimicrobial peptide), and subsequently, growth of the microbial organism (e.g. yeast, bacterium) was monitored by using spectrophotometry with a spectrophotometer at 620 nm. […] ND=Not done. Representative single assay data are listed rather than a range, for clarity reasons and for ease of comparison of peptide efficacy. The MIC was calculated as the lowest antibiotic (antimicrobial peptide) concentration at which growth of the assessed yeast or bacterium (microbe) was inhibited (inhibitory concentration IC90).

Cryptococcus neoformans = conditions: RPMI 1640 one-fourth strength
Protocol: as §1

[1] = test system: Malassezia furfur CBS-4172; conditions: RPMI 1640 one-fourth strength
Protocol: as §1

Phialophora verrucosa = conditions: RPMI 1640 one-fourth strength
Protocol: as §1

[2] = test system: Saccharomyces cerivisiae CMC-520; conditions: RPMI 1640 one-fourth strength
Protocol: as §1

Vibrio cholerae = conditions: RPMI 1640 one-fourth strength
Protocol: as §1

Nannizzia incurvata = conditions: RPMI 1640 one-fourth strength
Protocol: as §1

[3] = test system: Staphylococcus aureus (MRSA); conditions: RPMI 1640 one-fourth strength
Protocol: as §1

Penicillium digitatum = conditions: RPMI 1640 one-fourth strength
Protocol: as §1

Penicillium pinophilum = conditions: RPMI 1640 one-fourth strength
Protocol: as §1

Trichophyton mucoides = conditions: RPMI 1640 one-fourth strength
Protocol: as §1

Enterococcus faecalis = conditions: RPMI 1640 one-fourth strength
Protocol: as §1

Penicillium expansum = conditions: RPMI 1640 one-fourth strength
Protocol: as §1

Penicillium spp = conditions: RPMI 1640 one-fourth strength
Protocol: as §1

Trichophyton rubrum = conditions: RPMI 1640 one-fourth strength
Protocol: as §1

Fusarium solani = conditions: RPMI 1640 one-fourth strength
Protocol: as §1

Fonsecaea pedrosoi = conditions: RPMI 1640 one-fourth strength
Protocol: as §1

[4] = test system: Malassezia furfur CBS 9595; conditions: RPMI 1640 one-fourth strength
Protocol: as §1

[5] = test system: Malassezia furfur CBS 14141; conditions: RPMI 1640 one-fourth strength
Protocol: as §1

Trichosporon beigelii = conditions: RPMI 1640 one-fourth strength
Protocol: as §1

Candida spp. = conditions: RPMI 1640 one-fourth strength
Protocol: as §1

Pichia membramfaciens = conditions: RPMI 1640 one-fourth strength
Protocol: as §1

Sporotrichium spp = conditions: RPMI 1640 one-fourth strength
Protocol: as §1

[6] = test system: Staphylococcus epidermidis; conditions: RPMI 1640 one-fourth strength
Protocol: as §1

Mucor spp = conditions: RPMI 1640 one-fourth strength
Protocol: as §1

Aspergillus tamarii = conditions: RPMI 1640 one-fourth strength
Protocol: as §1

Cladosporium spp = conditions: RPMI 1640 one-fourth strength
Protocol: as §1

Entrobacter cloacae = conditions: RPMI 1640 one-fourth strength
Protocol: as §1

[7] = test system: Staphylococcus aureus 29213; conditions: RPMI 1640 one-fourth strength
Protocol: as §1

[8] = test system: Malassezia furfur CBS-7982; conditions: RPMI 1640 one-fourth strength
Protocol: as §1

[9] = test system: Saccharomyces cerivisiae ATCC 2602; conditions: RPMI 1640 one-fourth strength
Protocol: as §1

Trichophyton violaceum = conditions: RPMI 1640 one-fourth strength
Protocol: as §1

Aspergillus nidulans = conditions: RPMI 1640 one-fourth strength
Protocol: as §1

[10] = test system: M. guilliermondii CBS-2030 (Perugia); conditions: RPMI 1640 one-fourth strength
Protocol: as §1

[11] = test system: Cryptococcus uniguttulatus; conditions: RPMI 1640 one-fourth strength
Protocol: as §1

Proteus spp = conditions: RPMI 1640 one-fourth strength
Protocol: as §1

[12] = test system: Malassezia pachydermatis CBS 1883; conditions: RPMI 1640 one-fourth strength
Protocol: as §1

Torula spp = conditions: RPMI 1640 one-fourth strength
Protocol: as §1

[13] = test system: Trichophyton interdigitale; conditions: RPMI 1640 one-fourth strength
Protocol: as §1

[14] = test system: Trichophyton mentagrophytes; conditions: RPMI 1640 one-fourth strength
Protocol: as §1

Zygosaccharomyces bailii = conditions: RPMI 1640 one-fourth strength
Protocol: as §1

Penicillium italicum = conditions: RPMI 1640 one-fourth strength
Protocol: as §1

Aspergillus versicolor = conditions: RPMI 1640 one-fourth strength
Protocol: as §1

[15] = test system: Cryptococcus neoformans ▴ SKN7 (UMC); conditions: genetically modified type species, RPMI 1640 one-fourth strength
Protocol: as §1

Sequence: GRRRRSVQWCA [hLF1-11, Gly Arg Arg Arg Arg Ser Val Gln Trp Cys Ala]
- Inhibitory concentration MIC (MIC90) (Cryptococcus curvatus): MIC = 9 μg/ml
- Inhibitory concentration MIC (MIC90) (Cryptococcus neoformans): MIC = 12.5-50 μg/mL
- Inhibitory concentration MIC (MIC90) [1]: MIC = 50 μg/ml
- Inhibitory concentration MIC (MIC90) (Phialophora verrucosa): MIC = 5-10 μg/ml
- Inhibitory concentration MIC (MIC90) [2]: MIC = 50 μg/ml
- Inhibitory concentration MIC (MIC90) (Vibrio cholerae): MIC = 12.5 μg/ml
- Inhibitory concentration MIC (MIC90) (Nannizzia incurvata): MIC = 18 μg/ml
- Inhibitory concentration MIC (MIC90) [3]: MIC = 1.6 μg/ml
- Inhibitory concentration MIC (MIC90) (Penicillium digitatum): MIC = 8 μM
- Inhibitory concentration MIC (MIC90) (Penicillium pinophilum): MIC = 45 μg/ml
- Inhibitory concentration MIC (MIC90) (Trichophyton mucoides): MIC = 12.5-50 μg/ml
- Inhibitory concentration MIC (MIC90) (Enterococcus faecalis): MIC = 6.3 μg/ml
- Inhibitory concentration MIC (MIC90) (Penicillium expansum): MIC = 16 μM
- Inhibitory concentration MIC (MIC90) (Penicillium spp): MIC = 12.5-50 μg/ml
- Inhibitory concentration MIC (MIC90) (Trichophyton rubrum): MIC = 13-60 μg/ml
- Inhibitory concentration MIC (MIC90) (Fusarium solani): MIC = 8-16 μM
- Inhibitory concentration MIC (MIC90) (Fonsecaea pedrosoi): MIC = 5 μg/ml
- Inhibitory concentration MIC (MIC90) [4]: MIC = 25-50 μg/mL
- Inhibitory concentration MIC (MIC90) [5]: MIC = 12.5-50 μg/mL
- Inhibitory concentration MIC (MIC90) (Trichosporon beigelii): MIC = 40 μg/ml
- Inhibitory concentration MIC (MIC90) (Candida spp.): MIC = 12.5-50 μg/ml
- Inhibitory concentration MIC (MIC90) (Pichia membramfaciens): MIC = 45 μg/ml
- Inhibitory concentration MIC (MIC90) (Sporotrichium spp): MIC = 40 μg/ml
- Inhibitory concentration MIC (MIC90) [6]: MIC = 3.1 μg/ml
- Inhibitory concentration MIC (MIC90) (Mucor spp): MIC = 25-50 μg/mL
- Inhibitory concentration MIC (MIC90) (Aspergillus tamarii): MIC = 2.5-12.5 μg/ml
- Inhibitory concentration MIC (MIC90) (Cladosporium spp): MIC = 3.1-12.5 μg/ml
- Inhibitory concentration MIC (MIC90) (Entrobacter cloacae): MIC = 6.3 μg/ml
- Inhibitory concentration MIC (MIC90) [7]: MIC = 3.1 μg/ml
- Inhibitory concentration MIC (MIC90) [8]: MIC = 100 μg/ml
- Inhibitory concentration MIC (MIC90) [9]: MIC = 25 μg/ml
- Inhibitory concentration MIC (MIC90) (Trichophyton violaceum): MIC = 40 μg/ml
- Inhibitory concentration MIC (MIC90) (Aspergillus nidulans): MIC = 2.5-12.5 μg/ml
- Inhibitory concentration MIC (MIC90) [10]: MIC = 50 μg/mL
- Inhibitory concentration MIC (MIC90) [11]: MIC = 6 μg/ml
- Inhibitory concentration MIC (MIC90) (Proteus spp): MIC = 6.3 μg/ml
- Inhibitory concentration MIC (MIC90) [12]: MIC = 25-50 μg/mL
- Inhibitory concentration MIC (MIC90) (Torula spp): MIC = 40 μg/ml
- Inhibitory concentration MIC (MIC90) [13]: MIC = 6.3-45 μg/ml
- Inhibitory concentration MIC (MIC90) [14]: MIC = 6.3-45 μg/ml
- Inhibitory concentration MIC (MIC90) (Zygosaccharomyces bailii): MIC = 8 μM
- Inhibitory concentration MIC (MIC90) (Penicillium italicum): MIC = 8 μM
- Inhibitory concentration MIC (MIC90) (Aspergillus versicolor): MIC = 10 μg/ml
- Inhibitory concentration MIC (MIC90) [15]: MIC = 6.3 μg/ml
